Test [1] has as its system Huh-7 cells. Nature of the test: BBP-induced signaling in Huh-7 cells (RT-PCR, Western blot, immunofluorescence). It is filed as cell-based, human. The settings on record: PD98059 20 μM, 1 h pretreatment. On the procedure:
Huh-7 cells (3×10^5) were seeded into a 6-well dish and incubated for 24 h. Cells cultured serum-free medium overnight were treated with BBP (1 μM) for various time intervals. After BBP stimulation, cells were washed twice with PBS. Total RNAs were extracted by TRIzol methods (Invitrogen). RNA (2 μg) was used to synthesize cDNA by Reverse Transcription System (Promega). The c-DNAs were amplified by the specific primers. The primer pairs were designed as follows: AhR, forward 5′-TACTCTGCCGCCCAAACTGG-3′ (SEQ ID NO:49), reverse 5′-GCTCTGCAACCTCCGATTCC-3′ (SEQ ID NO:50); β-actin, forward 5′-CTC GCT GTC CAC CTT CCA-3′ (SEQ ID NO:51), reverse 5′-GCT GTC ACC TTC ACC GTTC-3′ (SEQ ID NO:52). PCR conditions were set at 95° C. for 5 min and 95° C. for 30 sec, 54° C. for 30 sec, 72° C. for 1 min followed by 72° C. for 10 min (36 cycles). The products were separated by 2% agarose gels and visualized by ethidium bromide.
Huh-7 cells (1×10^6) were seeded into 10 cm dish and cultured overnight. The culture medium was changed to serum-free medium for another night. Cells were treated with BBP (1 μM) for various time intervals. […] Cells were then washed twice with ice-cold PBS and lysed by RIPA lysis buffer (Minipore). Protein concentration was measured by BCA protein assay kit (Thermo). Equal amounts of protein (30 μg protein) were resolved by 8% SDS-PAGE, transferred onto PVDF membrane, and blocked with 5% non-fat dry milk for 1 h at room temperature. After blocking, the membrane was incubated with the primary antibodies including AhR (1:1000), Cox-2 (1:1000), Gαq/11 (1:100), Gβ (1:100), β-actin (1:5000), p44/42 MAP kinase (1:1000) or phospho-p44/42 MAP kinase (1:1000) overnight at 4° C. Cells were washed three times with PBST and then incubated with HRP conjugated secondary antibodies for 1 h at room temperature. After washing, the blot was visualized using an enhanced chemiluminescence kit (ECL) (Amersham).
Cells with or without transfection by AhR siRNA were cultured and treated with BBP (1 μM) for 5 and 15 min each. After treatment with primary and secondary antibodies for AhR and Gαq/11, cells were subjected to confocal immunofluorescence microscopy to analyze the dynamic movement in the cell compartments.

In test [2] the test system is hTS cells. Description: LIF dose effect on pluripotency transcription factors in hTS cells (RT-PCR, qPCR, flow cytometry). It counts as cell-based, human. The procedure: The differential gene expressions of Oct4, Sox2, NANOG, fgfr2, FGF4, BMP4, Cdx2, and endogenous control β-actin (ACTB) were measured in the hTS and the hTS cells treated by 500 units LIF (Chemicon, Temecula, CA) by IQ5 Real-time PCR detection system (Bio-Rad Laboratories) that using fluorescein as an internal passive reference dye for normalization of well-to-well optical variation. PCR amplifications were carried out in a total volume of 25 μl, containing 12.5 μl of 2×SYBR Green supermix (Bio-Rad), 0.5 μl of 10 μM of each primer and 0.5 μl of cDNA samples and mixed with sterile water. The reaction was initiated at 95° C., 3 minutes, followed by 60 three-step amplification cycles consisting of 30 s denaturation at 95° C., 30 s annealing at 60° C., 15 s extension at 72° C. At final dissociation stage, it was run to generate a melting curve for verification of amplification product specificity. Real-time qPCR was monitored and analyzed by the Bio-Rad IQ5 optical system software version 2.0 (Bio-Rad). Relative mRNA levels were calculated using the comparative Ct method (Bio-Rad instruction manual) and presented with ratio to biological controls. ACTB transcript levels were confirmed to correlate well with total RNA amounts and therefore used for normalization throughout. All primer pairs used were confirmed to approximately double the amount of product within one cycle and to yield a single product of the predicted size. Primer sequences of Oct4, Sox2, NANOG, fgfr2, FGF4, BMP4, Cdx2, and endogenous control β-actin (ACTB) are shown in Supplemental Data Table 3.
Cells (5×10^6 cells/ml) were incubated with a variety of primary antibodies for 30 min and then incubated with the appropriate fluorescein isothiocyanate (FITC)-, phycoerythrin (PE)- or Rho-conjugated secondary antibody (Jackson ImmunoResearch, West Grove, PA) at adjusted dilution for 1 h at 4° C. After thorough washing, cells were re-suspended in PBS (1 ml) and subjected to flow cytometry (FACScan, BD Biosciences, San Jose, CA). The data were analyzed with Cell-Quest software (BD Biosciences).
The effects of LIF withdrawal on human trophoblast stem (hTS) cells were examined since hTS cells expresses pluripotent gene markers of both embryonic stem (ES) cells and trophoblastic stem (TS) cells such as Oct4, Nanog, Sox2, and Cdx2 (FIG. 1a). hTS cells were treated with different dosages of LIF, i.e., 500 (mimic at ampulla), 250 (mimic at mid-portion), and 125 units (mimic at isthmus) for 3 days each, showing that LIF promoted Oct4 expression but represses Cdx2, Nanog, and Sox2 expressions in a dose-dependent manner (FIG. 1b). Quantitative PCR analyses supported these findings (FIG. 1c). As the relative expression ratio of Oct4 to Cdx2 enables to determine cell fate in early embryonic differentiation (Niwa et al., 2000), the Oct4/Cdx2 ratio ([…]) appeared to be the highest at the ampulla which decreased to 0.2-fold at mid-portion and became near one at isthmic portion (FIG. 1d). This decreasing trend of Oct4/Cdx2 ratio actually facilitates the differentiation towards trophectoderm fate (Niwa et al., 2005). […] This role of rescuer was further supported by the prominently high Nanog/Oct4 ratio of LIF with 125 units compared to the ratio of LIF with 500 units and the apparent increase of Cdx2/Oct4 ratio at LIF with 125 units (FIG. 1e) No apparent change of Sox2/Cdx2 was found.

Test [3] has as its system 6-OHDA-induced PD rats. Nature of the test: Immunofluorescence tissue analysis of regeneration of the dopaminergic nigrostriatal pathway. It counts as in vivo. The procedure:
To obtain the brain sections, rats were anesthetized by sodium pentobarbitone (60 mg/kg i.p., Apoteksbolaget, Sweden) and trans-cardially perfused with saline (50 ml, 0.9% w/v) followed by ice-cold paraformaldehyde (200 ml, 10% w/v in 0.02 M PBS) were performed at 18- and 12-week in the acute and chronic PD rats, respectively. Brain sections were subjected for immunocytochemistry, immunohistochemistry, and immunofluorescence tissue analysis as indicated.
To further verify the regeneration of the dopaminergic nigrostriatal pathway after cell therapy, immunofluorescence tissue analysis was performed (TissueGnostics Gmbh, Vienna, Austria). Brain sections were investigated, including 14 acute PD rats (i.e., 2 at 1-week and 2 at 6-week post-injury and 2 controls, 6 at 12-weeks after cell transplantation and 2 controls) and 4 chronic PD rats (i.e., 2 at 12-week after cell therapy and 2 controls). In the SNC, 6-OHDA caused progressive neural degeneration, resulting in various sizes of cavity at 6 weeks post-injury (FIG. 31).

Consider `COc1cccc(-c2cc(=O)c3ccccc3o2)c1N` [PD98059], for which, in test [1], the “BBP-induced ERK phosphorylation and COX-2 activation” value is “blocked”.

Regarding leukemia inhibitory factor [LIF], the Oct4/Cdx2 ratio entry in test [2] (LIF 125 units (mimic at isthmus), 3 days) is given as “one”; in test [2] (LIF 250 units (mimic at mid-portion), 3 days), 0.2 fold; in test [2] (LIF 500 units (mimic at ampulla), 3 days), 0.4 fold. In addition, the Nanog/Cdx2 ratio stood at 2 fold in test [2] (LIF 125 units, 3 days) and 0.1 fold in test [2] (LIF 500 units, 3 days). Moreover, the Oct4 expression entry in test [2] (LIF 500, 250, 125 units, 3 days) is “promoted”. Besides, the “Cdx2, Nanog, and Sox2 expressions” value in test [2] (LIF 500, 250, 125 units, 3 days, dose-dependent) is listed as “represses”. Moreover, the Nanog expression in test [2] (LIF-induced cells, isthmus level (125 U/ml), flow cytometry) is on record as 62.5%. Also, the “RA-induced Nanog expression” value in test [2] (hTS cells preincubated with RA (10 μM) overnight, then LIF 125, 250, 500 U/ml 1 day, flow cytometry) is given as “suppresses”.

Regarding `NCCc1cc(O)c(O)cc1O` [6-OHDA, 6-hydroxydopamine], in test [3] (1-week post-injury), the “DA (TH+) neurons in SNC compared to intact side” value is 48% and the “DA (TH+) neurons in striatum compared to intact side” value worked out at 78%. Moreover, in test [3] (6-week post-injury), the “DA (TH+) neurons in SNC compared to intact side” value is recorded as 13% and the “DA (TH+) neurons in striatum compared to intact side” value worked out at 4%. Also, in test [3] (6 weeks post-injury), the “GFAP(+) cells in lesioned striatum compared to intact side” value was 65.5%.

(Values after patent publication US11891623B2, “Generation of neural stem cells from human trophoblast stem cells” (Accelerated BioSciences Corp., priority 2010, dated 2024).)
